Source: patent US8722895B2, “Prolyl hydroxylase inhibitors and method of use” (Akebia Therapeutics Inc., priority 2006, dated 2014)

Assays:
[1] = system: EPO; assay: Mouse Serum EPO Assay (mouse ischemic hindlimb study); type: in vivo; conditions: for EPO response: in vivo response, mouse serum EPO
Description: (§1) Mouse Ischemic Hindlimb Study
(§2) All animal work is conducted in accordance with the Guide for the Care and Use of Laboratory Animals (National Academy of Sciences; Copyright® 1996) and the Institutional Animal Care and Use Committee guidelines at Procter and Gamble Pharmaceuticals. We studied 9-10 week old male C57B1/6 mice from Charles River Laboratory (Portage, Mich.). The mice are orally dosed with vehicle (aqueous carbonate buffer, 50 mM; pH 9.0) or compound 1 in vehicle at 50 mg/kg or 100 mg/kg. The animals are dosed three times: day 1 at Sam and 5 pm, day 2 at 8 am. One hour after the first dose, unilateral arterial ligation is performed under anesthesia using isoflurane. The femoral artery is ligated proximal to the origin of the popliteal artery. The contralateral limb underwent a sham surgical procedure. Ligation is performed in an alternating fashion between right and left hindlimbs. Two hours after Sam dosing on day 2, we obtained blood by ventricular stick while the mice are anesthetized with isoflurane. Serum samples for EPO analysis are obtained using gel clot serum separation tubes. Heart, liver, and gastrocnemius muscles are harvested, snap-frozen in liquid nitrogen, and stored in −80° C. until use.
The mouse serum EPO is detected using Mouse Quantikine Erythropoietin ELISA kit from R&D Systems according to manufacturer's instructions.

[2] = system: HIF-1α; assay: Mouse Tissue HIF Western Blot Analysis; type: in vivo; conditions: FIG. 1
Description: as §1, §2
Mouse Tissue HIF Western Blot Analysis
Tissues from mice stored at −80° C. are powdered with mortar and pestle chilled with liquid nitrogen. […]

Compound	EPO response [1]	erythropoietin level versus vehicle in mouse serum ([1]; mouse serum after oral dosing, FIG. 2)	stabilization of HIF-1α in mouse liver (immunoblot of nuclear extracts) [2]
Cc1ccc(-c2ccc(C(=O)NCC(=O)O)c(O)c2)cc1 [[(3-Hydroxy-4′-methyl-biphenyl-4-carbonyl)-amino]-acetic acid]	yes		
Cc1ccc(-c2cnc(C(=O)NCC(=O)O)c(O)c2)cc1 [[(3-Hydroxy-5-(4-methylphenyl)pyridine-2-carbonyl)amino]-acetic acid]	yes		
COC(=O)CNC(=O)c1ncc(-c2ccccc2Cl)cc1O [{[5-(2-Chlorophenyl)-3-hydroxy-pyridine-2-carbonyl]-amino}-acetic acid methyl ester]	yes		
O=C(O)CNC(=O)c1ncc(-c2ccccc2Cl)cc1O [{[5-(2-Chlorophenyl)-3-hydroxypyridine-2-carbonyl]amino}-acetic acid]	yes		
COC(=O)CNC(=O)c1ncc(-c2cccc(Cl)c2)cc1O [{[5-(3-Chloro-phenyl)-3-hydroxy-pyridine-2-carbonyl]-amino}acetic acid methyl ester]	yes		
O=C(O)CNC(=O)c1ncc(-c2cccc(Cl)c2)cc1O [{[5-(3-Chlorophenyl)-3-hydroxypyridine-2-carbonyl]amino}-acetic acid]	yes	elevated	stabilization of HIF-1α
N#Cc1ccc(-c2cnc(C(=O)NCC(=O)O)c(O)c2)cc1 [{[5-(4-Cyanophenyl)-3-hydroxypyridine-2-carbonyl]amino}-acetic acid]	yes		
{[5-(4-Chlorophenyl)-3-hydroxypyridine-2-carbonyl]amino}-acetic acid	yes		
